From patent publication US20230357162A1, “COMPOUNDS, COMPOSITIONS AND METHODS” (Denali Therapeutics Inc., priority 2020, published 2023)

Tested on: IL-1β secretion, THP-1 cells
Test: IL-1β secretion assay in PMA-differentiated THP-1 cells stimulated with LPS and nigericin (ELISA readout)
Assay type: cell-based
Conditions: 25 ng/mL LPS then nigericin
Procedure, shortened: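 THP-1 cells differentiated with 5 ng/mL PMA for 40 h, primed in serum-free medium with 25 ng/mL LPS for 2 h, then compound (0.5% DMSO) for 1 h before nigericin for 2 h at 37°C. Supernatant IL-1β quantified by ELISA; normalized to high (LPS + 5 µM nigericin) and low (LPS only) controls.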

[1] = Homo sapiens, THP-1, inhibition of IL-1β secretion, class column of Table 3
[2] = Homo sapiens, THP-1, inhibition of IL-1β secretion, numeric column of Table 3

Row | IC50 [1] [nM] | IC50 [2] [nM] | IC50 (inhibition of IL-1β secretion, class column of Table 3) [nM] | IC50 (inhibition of IL-1β secretion, numeric column of Table 3) [nM] | Compound
1 | < 10000 | 489 | – | – | O=C(Cn1nc(CC(F)(F)F)c2cc(Br)ccc2c1=O)Nc1ncncc1F [Example 91, 2-[6-bromo-1-oxo-4-(2,2,2-trifluoroethyl)phthalazin-2-yl]-N-(5-fluoropyrimidin-4-yl)acetamide]
2 | < 10000 | 2070 | – | – | CSc1ccc2c(=O)n(CC(=O)Nc3ncncc3F)nc(C(C)C)c2n1 [Example 23, N-(5-fluoropyrimidin-4-yl)-2-(2-methylsulfanyl-5-oxo-8-propan-2-ylpyrido[2,3-d]pyridazin-6-yl)acetamide]
3 | < 10000 | 913 | – | – | CC(C)c1nn(CC(=O)Nc2ncc(F)cc2F)c(=O)c2ccc(Br)cc12 [Example 38, 2-(6-bromo-1-oxo-4-propan-2-ylphthalazin-2-yl)-N-(3,5-difluoropyridin-2-yl)acetamide]
4 | < 10000 | 4600 | – | – | CC(C)c1nn(CC(=O)Nc2cc(C(F)(F)F)nn2C)c(=O)c2ccc(Br)cc12 [Example 116, 2-(6-bromo-1-oxo-4-propan-2-ylphthalazin-2-yl)-N-[2-methyl-5-(trifluoromethyl)pyrazol-3-yl]acetamide]
5 | < 10000 | 491 | – | – | N#Cc1cnc(NC(=O)Cn2nc(OC3CC3)c3cc(Br)ccc3c2=O)c(F)c1 [Example 151]
6 | > 15000 | > 50000 | – | – | CC(C)c1nn(CC(=O)Nc2ncncc2F)c(=O)c2cc(C(F)(F)F)ccc12 [Example 88, N-(5-fluoropyrimidin-4-yl)-2-[1-oxo-4-propan-2-yl-7-(trifluoromethyl)phthalazin-2-yl]acetamide]
7 | < 10000 | 1130 | – | – | CC(C)c1nn(CC(=O)NC2CCOCC2)c(=O)c2ccc(Br)cc12 [Example 53, 2-(6-bromo-1-oxo-4-propan-2-ylphthalazin-2-yl)-N-(oxan-4-yl)acetamide]
8 | < 10000 | 787 | – | – | CC(C)c1nn(CC(=O)Nc2ncncc2F)c(=O)c2ccc(OC(F)F)cc12 [Example 16, 2-[6-(difluoromethoxy)-1-oxo-4-propan-2-ylphthalazin-2-yl]-N-(5-fluoropyrimidin-4-yl)acetamide]
9 | < 10000 | 1170 | – | – | CC(C)c1nn(CC(=O)NC2CCCC2(F)F)c(=O)c2ccc(Br)cc12 (centres unmarked) [Example 46, 2-(6-bromo-1-oxo-4-propan-2-ylphthalazin-2-yl)-N-(2,2-difluorocyclopentyl)acet amide]
10 | < 10000 | 68 | – | – | O=C(Cn1nc(C(F)F)c2c(F)c(Br)ccc2c1=O)Nc1ncc(Cl)cn1 [Example 182]
11 | < 10000 | 3060 | – | – | CC(C)c1nn(CC(=O)NC2CCCOC2)c(=O)c2ccc(Br)cc12 (centres unmarked) [Example 125, 2-(6-bromo-1-oxo-4-propan-2-ylphthalazin-2-yl)-N-(oxan-3-yl)acetamide]
12 | < 10000 | 110 | – | – | CC(C)c1nn(CC(=O)Nc2ncc(Cl)cc2F)c(=O)c2ccc(Br)cc12 [Example 68, 2-(6-bromo-1-oxo-4-propan-2-ylphthalazin-2-yl)-N-(5-chloro-3-fluoropyridin-2-yl)acetamide]
13 | < 10000 | 1030 | – | – | Cc1cnc(NC(=O)Cn2nc(C(C)C)c3cc(Br)ccc3c2=O)c(F)c1 [Example 124, 2-(6-bromo-1-oxo-4-propan-2-ylphthalazin-2-yl)-N-(3-fluoro-5-methylpyridin-2-yl)acetamide]
14 | < 10000 | 128 | – | – | COc1nn(CC(=O)Nc2ncc(F)cn2)c(=O)c2ccc(Br)cc12 [Example 32, 2-(6-bromo-4-methoxy-1-oxophthalazin-2-yl)-N-(5-fluoropyrimidin-2-yl)acetamide]
15 | < 10000 | 3710 | – | – | CC(C)c1nn(CC(=O)NCC2CCCCO2)c(=O)c2ccc(Br)cc12 (centres unmarked) [Example 84, 2-(6-bromo-1-oxo-4-propan-2-ylphthalazin-2-yl)-N-(oxan-2-ylmethyl)acetamide]
16 | < 10000 | 3770 | – | – | COCCOc1nn(CC(=O)Nc2ncc(F)cn2)c(=O)c2ccc(Br)cc12 [Example 163]
17 | < 10000 | 3660 | – | – | CC(C)c1nn(C(C)C(=O)Nc2ncncc2F)c(=O)c2ccc(Br)cc12 (centres unmarked) [Example 14, 2-(6-bromo-1-oxo-4-propan-2-ylphthalazin-2-yl)-N-(5-fluoropyrimidin-4-yl)propanamide]
18 | < 10000 | 741 | – | – | CC(C)c1nn(CC(=O)Nc2ncncc2F)c(=O)c2c(F)cc(Br)cc12 [Example 92, 2-(6-bromo-8-fluoro-1-oxo-4-propan-2-ylphthalazin-2-yl)-N-(5-fluoropyrimidin-4-yl)acetamide]

Row | IC50 [1] [nM] | IC50 [2] [nM] | IC50 (inhibition of IL-1β secretion, class column of Table 3) [nM] | IC50 (inhibition of IL-1β secretion, numeric column of Table 3) [nM] | Compound
19 | < 10000 | 163 | – | – | CC(C)c1nn(CC(=O)Nc2ccc(C#N)cn2)c(=O)c2ccc(Br)cc12 [Example 119, 2-(6-bromo-1-oxo-4-propan-2-ylphthalazin-2-yl)-N-(5-cyanopyridin-2-yl)acetamide]
20 | < 10000 | 876 | – | – | CC(c1nn(CC(=O)Nc2ncncc2F)c(=O)c2ccc(Br)cc12)C(F)(F)F (centres unmarked) [Example 17, 2-[6-bromo-1-oxo-4-(1,1,1-trifluoropropan-2-yl)phthalazin-2-yl]-N-(5-fluoropyrimidin-4-yl)acetamide]
21 | < 10000 | 1350 | – | – | CC(C)c1nn(CC(=O)Nc2nccc(C(F)(F)F)n2)c(=O)c2ccc(Br)cc12 [Example 110, 2-(6-bromo-1-oxo-4-propan-2-ylphthalazin-2-yl)-N-[4-(trifluoromethyl)pyrimidin-2-yl]acetamide]
22 | < 10000 | 35 | – | – | CC(C)c1nn(CC(=O)Nc2ncc(F)cn2)c(=O)c2ccc(Br)cc12 [Example 113, 2-(6-bromo-1-oxo-4-propan-2-ylphthalazin-2-yl)-N-(5-fluoropyrimidin-2-yl)acetamide]
23 | < 10000 | 1280 | – | – | CC(C)c1nn(CC(=O)Nc2cncc(F)c2)c(=O)c2ccc(Br)cc12 [Example 122, 2-(6-bromo-1-oxo-4-propan-2-ylphthalazin-2-yl)-N-(5-fluoropyridin-3-yl)acetamide]
24 | < 10000 | 1700 | – | – | CC(C)c1nn(CC(=O)Nc2ccnn2C)c(=O)c2ccc(Br)cc12 [Example 49, 2-(6-bromo-1-oxo-4-propan-2-ylphthalazin-2-yl)-N-(2-methylpyrazol-3-yl)acetamide]
25 | < 10000 | 1770 | – | – | CC(C)c1nn(CC(=O)Nc2ncc(F)cc2C#N)c(=O)c2ccc(Br)cc12 [Example 114, 2-(6-bromo-1-oxo-4-propan-2-ylphthalazin-2-yl)-N-(3-cyano-5-fluoropyridin-2-yl)acetamide]
26 | < 10000 | 1710 | – | – | CC(C)c1nn(CC(=O)Nc2ccn(C)n2)c(=O)c2ccc(Br)cc12 [Example 69, 2-(6-bromo-1-oxo-4-propan-2-ylphthalazin-2-yl)-N-(1-methylpyrazol-3-yl)acetamide]
27 | < 10000 | 2920 | – | – | CC(C)c1nn(CC(=O)NCC2CCCO2)c(=O)c2ccc(Br)cc12 (centres unmarked) [Example 130, 2-(6-bromo-1-oxo-4-propan-2-ylphthalazin-2-yl)-N-(oxolan-2-ylmethyl)acetamide]
28 | < 10000 | 334 | – | – | CC(C)c1nn(CC(=O)Nc2ncncc2F)c(=O)c2ccc(C3CC3)cc12 [Example 19, 2-(6-cyclopropyl-1-oxo-4-propan-2-ylphthalazin-2-yl)-N-(5-fluoropyrimidin-4-yl)acetamide]
29 | < 10000 | 499 | – | – | CC(C)c1nn(CC(=O)Nc2cnccn2)c(=O)c2ccc(Br)cc12 [Example 71, 2-(6-bromo-1-oxo-4-propan-2-ylphthalazin-2-yl)-N-pyrazin-2-ylacetamide]
30 | < 10000 | 265 | – | – | O=C(Cn1nc(C(F)F)c2cc(Br)ccc2c1=O)Nc1ncc(F)cn1 [Example 103, 2-[6-bromo-4-(difluoromethyl)-1-oxophthalazin-2-yl]-N-(5-fluoropyrimidin-2-yl)acetamide]
31 | < 10000 | 138 | – | – | CC(C)c1nn(CC(=O)Nc2ncncc2F)c(=O)c2ccc(C(F)(F)F)nc12 [Example 24, N-(5-fluoropyrimidin-4-yl)-2-[5-oxo-8-propan-2-yl-2-(trifluoromethyl)pyrido[2,3-d]pyridazin-6-yl]acetamide]
32 | < 10000 | 1270 | – | – | O=C(Cn1nc(C(F)(F)F)c2cc(Br)ccc2c1=O)Nc1ncncc1F [Example 131, 2-[6-bromo-1-oxo-4-(trifluoromethyl)phthalazin-2-yl]-N-(5-fluoropyrimidin-4-yl)acetamide]
33 | < 10000 | 6990 | – | – | O=C(Cn1nc(C(F)F)c2ccc(Br)cc2c1=O)Nc1ncc(F)cn1 [Example 104, 2-[7-bromo-4-(difluoromethyl)-1-oxophthalazin-2-yl]-N-(5-fluoropyrimidin-2-yl)acetamide]
34 | < 10000 | 318 | – | – | O=C(Cn1nc(C(F)CF)c2cc(Br)ccc2c1=O)Nc1ncc(F)cn1 (centres unmarked) [Example 139, 2-[6-bromo-4-(1,2-difluoroethyl)-1-oxophthalazin-2-yl]-N-(5-fluoropyrimidin-2-yl)acetamide]
35 | < 10000 | 213 | – | – | O=C(Cn1nc(OC2CC2)c2cc(Br)ccc2c1=O)N[C@@H]1CCCN(C2CCC2)C1 [Example 177]
36 | – | – | < 10000 | 237 | O=C(Cn1nc([C@H]2C[C@H]2F)c2cc(Br)ccc2c1=O)Nc1ncc(F)cn1 (single isomer, unassigned) [Example 166, 2-[6-bromo-4-[2-cis-fluorocyclopropyl]-1-oxophthalazin-2-yl]-N-(5-fluoropyrimidin-2-yl)acetamide]

Row | Compound | IC50 [1] [nM] | IC50 [2] [nM] | IC50 (inhibition of IL-1β secretion, class column of Table 3) [nM] | IC50 (inhibition of IL-1β secretion, numeric column of Table 3) [nM]
37 | C[C@H]1C[C@@H](Oc2nn(CC(=O)Nc3ncc(F)cn3)c(=O)c3ccc(Br)cc23)C1 [Example 157, 2-[6-bromo-4-(3-cis-methylcyclobutoxy)-1-oxo-phthalazin-2-yl]-N-(5-fluoropyrimidin-2-yl)acetamide] | < 10000 | 139 | – | –
